Usually IC50 stands for the concentration that gives 50% inhibition. One may read the inhibition as the percentage by which the read-out fell short of the control.

Like-named read-outs stand apart in the source and are kept apart here.

The values below come from patent EP0929544B1, “TRICYCLIC ANTITUMOR COMPOUNDS BEING FARNESYL PROTEIN TRANSFERASE INHIBITORS” (SCHERING CORPORATION, priority 1996, dated 1998).

Test [1] addresses T1, Farnesyl protein transferase (FPT) (Rattus norvegicus, UniProt Q02293+Q04631).
T1 construct: Farnesyl protein transferase (FPT) was partially purified from rat brain; from tissue; host or cells: rat brain
Nature of the test: In vitro enzyme assay: inhibition of farnesyl protein transferase (transfer of [3H]farnesyl from [3H]farnesyl pyrophosphate to Ras-CVLS). Format: biochemical. The text has this: 1. In vitro enzyme assays: Inhibition of farnesyl protein transferase and geranylgeranyl protein transferase.
Farnesyl protein transferase (FPT) was partially purified from rat brain by ammonium sulfate fractionation followed by Q-Sepharose (Pharmacia, Inc.) anion exchange chromatography essentially as described by Yokoyama et al (Yokoyama, K., et al., (1991), A protein geranylgeranyltransferase from bovine brain: Implications for protein prenylation specificity, Proc. Natl. Acad. Sci USA 88: 5302-5306, the disclosure of which is incorporated herein by reference thereto). Human famesyl protein transferase was also expressed in E. coli, using cDNA clones encoding both the a and b subunits. The methods used were similar to those published (Omer, C. et al., (1993), Characterization of recombinant human farnesyl protein transferase: Cloning, expression, famesyl diphosphate binding, and functional homology with yeast prenyl-protein transferases, Biochemistry 32:5167-5176). Human famesyl protein transferase was partially-purified from the soluble protein fraction of E. coli as described above. […] Two forms of val^12-Ha-Ras protein were prepared as substrates for these enzymes, differing in their carboxy terminal sequence. One form terminated in cysteine-valine-leucine-serine (Ras-CVLS) the other in cystein-valine-leucine-leucine (Ras-CVLL). Ras-CVLS is a substrate for the famesyl protein transferase while Ras-CVLL is a substrate for geranylgeranyl protein transferase I. The cDNAs encoding these proteins were constructed so that the proteins contain an amino-terminal extension of 6 histidine residues. Both proteins were expressed in Escherichia coli and purified using metal chelate affinity chromatography. The radiolabelled isoprenyl pyrophosphate substrates, [^3H]farnesyl pyrophosphate and [^3H]geranylgeranyl pyrophosphate, were purchased from DuPont/New England Nuclear.
Several methods for measuring famesyl protein transferase activity have been described (Reiss et al 1990, Cell 62: 81; Schaber et al 1990, J. Biol. Chem. 265: 14701; Manne et al 1990, PNAS 87: 7541; and Barbacid & Manne 1993, U.S. Patent No. 5,185,248). […] The reaction was allowed to proceed for 30 minutes at room temperature and then stopped with 0.5 ml of 4% sodium dodecyl sulfate (SDS) followed by 0.5 ml of cold 30% TCA. Samples were allowed to sit on ice for 45 minutes and precipitated Ras protein was then collected on GF/C filter paper mats using a Brandel cell harvester. Filter mats were washed once with 6% TCA, 2% SDS and radioactivity was measured in a Wallac 1204 Betaplate BS liquid scintillation counter. Percent inhibition was calculated relative to the DMSO vehicle control.

Test [2] deals with Ras processing in COS monkey kidney cells. Nature of the test: Cell-based assay: transient expression of val12-Ha-Ras-CVLS in COS cells, effect on Ras processing (immunoblot). The settings on record: Primates, read-out: INHIBITION OF RAS PROCESSING IC50. From the text: 2. Cell-Based Assay: Transient expression of val^12-Ha-Ras-CVLS and val^12-Ha-Ras-CVLL in COS monkey kidney cells: Effect of famesyl protein transferase inhibitors on Ras processing and on disordered cell growth induced by transforming Ras.
COS monkey kidney cells were transfected by electroporation with the plasmid pSV-SPORT (Gibco/BRL) containing a cDNA insert encoding either Ras-CVLS or Ras-CVLL, leading to transient overexpression of a Ras substrate for either famesyl protein transferase or geranylgeranyl protein transferase I, respectively (see above).
Following electroporation, cells were plated into 6-well tissue culture dishes containing 1.5 ml of Dulbecco's-modified Eagle's media (GIBCO, Inc.) supplemented with 10% fetal calf serum and the appropriate famesyl protein transferase inhibitors. After 24 hours, media was removed and fresh media containing the appropriate drugs was re-added.
48 hours after electroporation cells were examined under the microscope to monitor disordered cell growth induced by transforming Ras. Cells expressing transforming Ras become more rounded and refractile and overgrow the monolayer, reminiscent of the transformed phenotype. Cells were then photographed, washed twice with 1 ml of cold phosphate-buffered saline (PBS) and removed from the dish by scraping with a rubber policeman into 1 ml of a buffer containing 25 mM Tris, pH 8.0; 1 mM ethylenediamine tetraacetic acid; 1 mM phenylmethylsulfonyl fluoride; […]; and 0.1 mM pepstatin. Cells were lysed by homogenization and cell debris was removed by centrifugation at 2000 × g for 10 min.
Cellular protein was precipitated by addition of ice-cold trichloroacetic acid and redissolved in […] of SDS-electrophoresis sample buffer. Samples ([…]) were loaded onto 14% polyacrylamide minigels (Novex, Inc.) and electrophoresed until the tracking dye neared the bottom of the gel. Proteins resolved on the gels were electroblotted onto nitrocellulose membranes for immunodetection.
Membranes were blocked by incubation overnight at 4°C in PBS containing 2.5% dried milk and 0.5% Tween-20 and then incubated with a Ras-specific monoclonal antibody, Y13-259 (Furth, M.E., et al., (1982), Monoclonal antibodies to the p21 products of the transforming gene of Harvey murine sarcome virus and of the cellular ras gene family, J. Virol. 43: 294-304), in PBS containing 1% fetal calf serum for one hour at room temperature. After washing, membranes were incubated for one hour at room temperature with a 1:5000 dilution of secondary antibody, rabbit anti-rat IgG conjugated to horseradish peroxidase, in PBS containing 1% fetal calf serum. The presence of processed and unprocessed Ras-CVLS or Ras-CVLL was detected using a colorimetric peroxidase reagent (4-chloro-1-naphthol) as described by the manufacturer (Bio-Rad).
(In general: Immunoblotting shows a protein as a band on a membrane.)

The mark [3] stands for this setting: FPT INHIBITION; read-out: FPT IC50.
Where [4] appears, read: read-out: FPT IC50; FPT INHIBITION

T1 sequence (Q02293 whole entry, one chain of several): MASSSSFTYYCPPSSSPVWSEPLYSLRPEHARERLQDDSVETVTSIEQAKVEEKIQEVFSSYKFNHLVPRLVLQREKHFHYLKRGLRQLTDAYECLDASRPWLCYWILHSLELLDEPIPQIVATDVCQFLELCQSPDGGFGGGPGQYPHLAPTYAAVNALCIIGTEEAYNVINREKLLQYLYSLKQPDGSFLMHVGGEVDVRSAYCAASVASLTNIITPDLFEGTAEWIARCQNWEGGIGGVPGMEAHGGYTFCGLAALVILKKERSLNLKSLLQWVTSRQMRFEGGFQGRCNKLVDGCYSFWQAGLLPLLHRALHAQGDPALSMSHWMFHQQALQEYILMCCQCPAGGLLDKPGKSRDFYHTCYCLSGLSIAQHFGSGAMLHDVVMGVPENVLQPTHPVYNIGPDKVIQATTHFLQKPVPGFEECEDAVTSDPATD

Turning to `O=C(CN1CCCC1=O)N1CCC(C2c3ncc(Br)cc3CCc3cc(Cl)cc(Cl)c32)CC1` (single isomer, unassigned) [Example 10], the figures for the IC50 in test [1] (setting [3]) and in test [2] (ACTIVITY IN COS CELLS) were 19 nM and 500 nM, respectively. `O=C(CCC(=O)N1CCC(C2c3ncc(Br)cc3CCc3cc(Cl)cc(Cl)c32)CC1)N1CCCC1` (single isomer, unassigned) [Example 14]: the values for the IC50 in test [1] (setting [3]) and in test [2] (ACTIVITY IN COS CELLS) were 16 nM and 250 nM, respectively. Turning to `CN(C)CCCC(=O)N1CCC(C2c3ncc(Br)cc3CCc3cc(Cl)cc(Br)c32)CC1` (single isomer, unassigned; (+)) [Example 2, (+)-4-(3,10-DIBROMO-8-CHLORO-6,11-DIHYDRO-5H-BENZO[5,6]CYCLO-HEPTA[1,2-b]PYRIDIN-11-YL)-1-[4-(DIMETHYLAMINO)-1-OXOBUTYL]PIPERIDINE], the figures for the half-inhibitory concentration (IC50) in test [1] (setting [3]) and in test [2] (ACTIVITY IN COS CELLS) were 4 nM and 13 nM, respectively. Turning to `CN(C)C(=O)CCC(=O)N1CCC(C2c3ncc(Br)cc3CCc3cc(Cl)cc(Cl)c32)CC1` (single isomer, unassigned) [Example 13], the half-maximal inhibitory concentration (IC50) in test [1] (setting [3]) is 15 nM; in test [2] (ACTIVITY IN COS CELLS), 200 nM.

As for `O=C(NCCCC(=O)N1CCC(C2c3ncc(Br)cc3CCc3cc(Cl)cc(Cl)c32)CC1)c1cccnc1` (single isomer, unassigned) [Example 18], the inhibition at 0.093 µM in test [1] (@ 93 nM; read-out: FPT inhibition (percent inhibition)) stood at 9%. Besides, in test [2] (ACTIVITY IN COS CELLS), the IC50 was 540 nM. For `NC(=O)CCCCC(=O)N1CCC([C@H]2c3ncc(Br)cc3CCc3cc(Cl)cc(Br)c32)CC1` [Example 56, (+)-4-(3,10-DIBROMO-8-CHLORO-6,11-DIHYDRO-5H-BENZO[5,6]CYCLO-HEPTA[1,2-b]PYRIDIN-11(R)-YL)-EPSILON-OXO-1-PIPERIDININE HEXANAMIDE], in test [1] (setting [3]), the IC50 was 7 nM. On to `CC(=O)NCCCC(=O)N1CCC(C2c3ncc(Br)cc3CCc3cc(Cl)cc(Cl)c32)CC1` (single isomer, unassigned) [Example 15], for which the IC50 in test [1] (setting [3]) turned out to be 63 nM.

In the case of `O=C(CCCN1C(=O)c2ccncc2C1=O)N1CCC(C2c3ncc(Br)cc3CCc3cc(Cl)cc(Cl)c32)CC1` (single isomer, unassigned) [Example 33, 4-(8,10-DICHLORO-3-BROMO-6,11-DIHYDRO-5H-BENZO[5,6]CYCLO-HEPTA[1,2-b]PYRIDIN-11-YL)-1-[4-(1,3-DIHYDRO-1,3-DIOXO-2H-PYRROLO-[3,4c]-PYRIDINE-2-YL)-1-OXOBUTYL]PIPERIDINE], in test [1] (read-out: FPT inhibition (percent inhibition)), the inhibition at 0.0934 µM is 38.7%.

`O=C(O)CCC(=O)N1CCC([C@H]2c3ncc(Br)cc3CCc3cc(Cl)cc(Br)c32)CC1` [Example 49, (+)-SODIUM 4-(3,10-DIBROMO-8-CHLORO-6,11-DIHYDRO-5H-BENZO[5,6]CYCLO-HEPTA[1,2-b]PYRIDIN-11(R)-YL)-GAMMA-OXO-1-PI[…]]: in test [1] (setting [4]), the 50% inhibitory concentration (IC50) was 270 nM. Turning to `NC(=O)CCCC(=O)N1CCC([C@H]2c3ncc(Br)cc3CCc3cc(Cl)cc(Br)c32)CC1` [Example 53, (+)-4-(3,10-DIBROMO-8-CHLORO-6,11-DIHYDRO-5H-BENZO[5,6]CYCLO-HEPTA[1,2-b]PYRIDIN-11(R)-YL)-DELTA-OXO-1-PIPERIDININE PENTANAMIDE], the half-inhibitory concentration (IC50) in test [1] (setting [3]) came out at 10 nM.

For `COC(=O)CCC(=O)N1CCC([C@H]2c3ncc(Br)cc3CCc3cc(Cl)cc(Br)c32)CC1` [Example 48, (+)-METHYL 4-(3,10-DIBROMO-8-CHLORO-6,11-DIHYDRO-5H-BENZO[5,6]CYCLO-HEPTA[1,2-b]PYRIDIN-11(R)-YL)-GAMMA-OXO-1-PI[…]], in test [1] (setting [4]), the IC50 is 9 nM. Regarding `CC(C)(C)OC(=O)NCC(=O)N1CCC(C2c3ncc(Br)cc3CCc3cc(Cl)cc(Cl)c32)CC1` (single isomer, unassigned) [Example 26], the IC50 in test [1] (setting [3]) is 540 nM.

Regarding `O=C(O)CCCCCC(=O)N1CCC([C@H]2c3ncc(Br)cc3CCc3cc(Cl)cc(Br)c32)CC1` [Example 58, (+)-SODIUM 4-(3,10-DIBROMO-8-CHLORO-6,11-DIHYDRO-5H-BENZO[5,6]CYCLO-HEPTA[1,2-b]PYRIDIN-11(R)-YL)-OMEGA-OXO -1-PIPERIDININE HEPTANOATE], the IC50 was 9.1 nM in test [1] (setting [3]) and 300 nM in test [2] (COS). For `CCOC(=O)CC(=O)N1CCC([C@H]2c3ncc(Br)cc3CCc3cc(Cl)cc(Br)c32)CC1` [Example 45, (+)-ETHYL 4-(3,10-DIBROMO-8-CHLORO-6,11-DIHYDRO-5H-BENZO[5,6]CYCLO-HEPTA[1,2-b]PYRIDIN-11(R)-YL)-BETA-OXO-1-PIPERIDININE PROPANOATE], the IC50 in test [1] (setting [3]) was 28 nM.

Regarding `O=C(NCCCC(=O)N1CCC(C2c3ncc(Br)cc3CCc3cc(Cl)cc(Cl)c32)CC1)c1ccncc1` (single isomer, unassigned) [Example 24], the “FPT inhibition (percent inhibition)” value in test [1] (@ 0.06 µg/µL) is 20 %@ 0.06 µg/µL. Turning to `O=C(CCCC(=O)N1CCC(C2c3ncc(Br)cc3CCc3cc(Cl)cc(Cl)c32)CC1)Nc1ccccc1` (single isomer, unassigned) [Example 19], the “FPT inhibition (percent inhibition)” value in test [1] (@ 0.06 µg/µL) amounted to 21%@ 0.06 µg/µL.
